# Read-outs that look alike come from different tables or passages of the source.
# Columns and labels:
# BACE1 [1] = molecular target: T1, BACE1 (Homo sapiens (Human), UniProt P56817); test: In vitro enzymatic BACE1 FRET assay; assay type: biochemical
# Target sequence in this assay (P56817 46-501): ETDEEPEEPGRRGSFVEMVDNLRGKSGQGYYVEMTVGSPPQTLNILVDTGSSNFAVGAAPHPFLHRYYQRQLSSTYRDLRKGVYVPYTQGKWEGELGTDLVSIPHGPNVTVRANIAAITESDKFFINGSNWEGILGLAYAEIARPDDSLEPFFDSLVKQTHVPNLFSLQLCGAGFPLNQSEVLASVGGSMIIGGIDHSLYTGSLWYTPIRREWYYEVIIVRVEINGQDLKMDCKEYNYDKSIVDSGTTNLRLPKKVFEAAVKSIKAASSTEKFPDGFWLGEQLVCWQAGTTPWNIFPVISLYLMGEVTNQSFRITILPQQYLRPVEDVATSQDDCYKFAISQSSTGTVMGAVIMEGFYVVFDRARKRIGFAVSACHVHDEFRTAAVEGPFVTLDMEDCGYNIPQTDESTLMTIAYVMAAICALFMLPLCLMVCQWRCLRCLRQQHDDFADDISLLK
# Excerpt: (§1) In Vitro Enzymatic BACE1 and BACE2 FRET (Fluorescence Resonance Energy Transfer) Assays (Enzyme Assay Data in Table 1)
# BACE1 [2] = molecular target: T1, BACE1; test: BACE1 cell assay; assay type: cell-based
# Target sequence in this assay (P56817 46-501, species assumed): as the sequence (P56817 46-501) above
# BACE2 = BACE2 (Homo sapiens (Human), UniProt Q9Y5Z0); test: In vitro enzymatic BACE2 FRET assay; assay type: biochemical
# Excerpt: as §1
# Cathepsin D (CatD) = Cathepsin D (CatD) (Homo sapiens (Human), UniProt P07339); test: CatD assay; assay type: biochemical; conditions: read-out: IC50 IP (μM) CatD
# Sequence of Cathepsin D (CatD) (P07339 65-412, species assumed): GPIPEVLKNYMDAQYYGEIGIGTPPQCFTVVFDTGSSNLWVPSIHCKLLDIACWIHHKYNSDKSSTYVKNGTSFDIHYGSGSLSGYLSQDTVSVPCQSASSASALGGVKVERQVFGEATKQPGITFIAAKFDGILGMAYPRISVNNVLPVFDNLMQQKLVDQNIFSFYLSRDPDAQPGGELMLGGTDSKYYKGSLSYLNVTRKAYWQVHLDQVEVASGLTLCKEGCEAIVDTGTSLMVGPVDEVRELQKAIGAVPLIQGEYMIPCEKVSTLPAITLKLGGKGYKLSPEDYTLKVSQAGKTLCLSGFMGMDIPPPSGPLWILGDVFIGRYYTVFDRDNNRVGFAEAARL
# Aβ 40 = test: In vivo inhibition of beta-secretase: Aβ 40 reduction in rat CSF and brain; conditions: after 4 hrs, versus vehicle;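 further: male Sprague Dawley rats dosed orally in 2% HPMC, 1% Tween80 (pH 2.2) vehicle, Aβ40 quantified by sandwich ECL-based ELISA in CSF and brain supernatants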
# Excerpt: Several animal models, including mouse, rat, dog, and monkey, may be used to screen for inhibition of beta-secretase activity in vivo following administration of a test compound sample. […] A separate group of animals receive 2% hydroxypropyl methylcellulose, 1% Tween80 alone, containing no test compound, and serve as a vehicle-control group. At the end of the test period, animals are sacrificed and brain tissues, plasma or cerebrospinal fluid are collected. […] Homogenates are centrifuged at 355,000 g, 4° C. for 30 minutes. CSF or brain supernatants are then analyzed for the presence of Aβ by specific sandwich ELISA assays based on ECL (Electrochemiluminescence) technology. For example, rat Abeta40 is measured using biotinylated-4G8 (Signet) as a capture antibody and Fab40 (an in-house antibody specific to the C-terminal of Abeta40) as a detection antibody. […] Actual vehicles used: Oral: 2% HPMC, 1% Tween80, pH 2.2
# [3] = read-out: IC50 IP (μM) BACE1 Enzyme
# [4] = read-out: IC50 IP (μM) BACE2 Enzyme
# [5] = read-out: IC50 IP (μM) BACE1 Cell
# Sequence of BACE2 (Q9Y5Z0 63-518): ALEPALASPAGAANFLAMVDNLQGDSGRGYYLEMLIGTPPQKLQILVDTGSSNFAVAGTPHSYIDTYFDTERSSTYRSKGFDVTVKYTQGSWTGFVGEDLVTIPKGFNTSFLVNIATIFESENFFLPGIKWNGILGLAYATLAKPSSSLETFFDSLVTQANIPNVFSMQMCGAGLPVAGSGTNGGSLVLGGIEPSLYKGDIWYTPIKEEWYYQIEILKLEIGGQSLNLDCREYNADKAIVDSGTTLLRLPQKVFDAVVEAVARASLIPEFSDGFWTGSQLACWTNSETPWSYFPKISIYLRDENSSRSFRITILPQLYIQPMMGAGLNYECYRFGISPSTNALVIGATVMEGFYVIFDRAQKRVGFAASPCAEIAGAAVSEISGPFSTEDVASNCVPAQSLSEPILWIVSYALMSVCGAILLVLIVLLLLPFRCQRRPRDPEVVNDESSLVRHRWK
Structure (SMILES),IC50 (BACE1 [1]; [3]),IC50 (BACE1 [2]),IC50 (BACE2; [4]),IC50 (Cathepsin D (CatD)),% Aβ 40 reduction in rat CSF at 10 mpk (Aβ 40),% Aβ 40 reduction in rat brain at 10 mpk (Aβ 40),IC50 (BACE1 [1]),IC50 (BACE1 [2]; [5]),IC50 (BACE2)
"CNC(=O)[C@]12C[C@H]1[C@@](C)(c1cc(/C=C(\F)c3ccc(C#N)cn3)ccc1F)N=C(N)S2 [Example 222, (1S,5S,6S)-3-amino-5-(5-((Z)-2-(5-cyanopyridin-2-yl)-2-fluorovinyl)-2-fluorophenyl)-N,5-dimethyl-2-thia-4-azabicyclo[4.1.0]hept-3-ene-1-carboxamide]",0.0018 µM,0.0017 µM,0.091 µM,429 µM,70%,62%,,,
"C[C@]1(c2cc(/C=C(\F)c3ccc(C#N)cn3)ccc2F)N=C(N)S[C@@]2(C(=O)N3CC[C@@H](F)C3)C[C@H]21 [Example 126, 6-((Z)-2-(3-((1S,5S,6S)-3-amino-1-((R)-3-fluoropyrrolidine-1-carbonyl)-5-methyl-2-thia-4-azabicyclo[4.1.0]hept-3-en-5-yl)-4-fluorophenyl)-1-fluorovinyl)nicotinonitrile]",,,0.0299 µM,390 µM,73%,73%,,,
"C[C@]1(c2cc(/C=C(\F)c3ccc(C#N)cn3)ccc2F)N=C(N)S[C@@]2(C(=O)N3CCC(F)(F)C3)C[C@H]21 [Example 122, 6-((Z)-2-(3-((1S,5S,6S)-3-amino-1-(3,3-difluoropyrrolidine-1-carbonyl)-5-methyl-2-thia-4-azabicyclo[4.1.0]hept-3-en-5-yl)-4-fluorophenyl)-1-fluorovinyl)nicotinonitrile]",,,,,67%,44%,,,
"C[C@]1(c2cc(/C=C(\F)c3ccc(C#N)cn3)ccc2F)N=C(N)S[C@@]2(C(=O)N3CC[C@H](F)C3)C[C@H]21 [Example 127, 6-((Z)-2-(3-((1S,5S,6S)-3-amino-1-((S)-3-fluoropyrrolidine-1-carbonyl)-5-methyl-2-thia-4-azabicyclo[4.1.0]hept-3-en-5-yl)-4-fluorophenyl)-1-fluorovinyl)nicotinonitrile]",,,0.0519 µM,131 µM,73%,76%,,,
"C#CCOc1cnc(/C(F)=C/c2cnc(F)c([C@@]3(C)N=C(N)S[C@@]4(C(=O)N5[C@H]6COC[C@H]5COC6)C[C@H]43)c2)cn1 [Example 284, ((1S,5S,6S)-3-amino-5-(2-fluoro-5-((Z)-2-fluoro-2-(5-(prop-2-yn-1-yloxy)pyrazin-2-yl)vinyl)pyridin-3-yl)-5-methyl-2-thia-4-azabicyclo[4.1.0]hept-3-en-1-yl)((1R,5R)-3,7-dioxa-9-azabicyclo[3.3.1]nonan-9-yl)methanone]",,,,133 µM,14%,4%,0.0039 µM,0.0035 µM,0.255 µM
"CC#CCOc1cnc(/C(F)=C/c2ccc(F)c([C@@]3(C)N=C(N)S[C@@]4(S(C)(=O)=O)C[C@H]43)c2)cn1 [Example 231, (1R,5S,6S)-5-(5-((Z)-2-(5-(but-2-yn-1-yloxy)pyrazin-2-yl)-2-fluorovinyl)-2-fluorophenyl)-5-methyl-1-(methylsulfonyl)-2-thia-4-azabicyclo[4.1.0]hept-3-en-3-amine]",0.0002 µM,,0.03 µM,47.8 µM,37%,26%,,0.0029 µM,
"CC#CCOc1cnc(/C(F)=C/c2ccc(F)c([C@@]3(C)N=C(N)S[C@@]4(C(N)=O)C[C@H]43)c2)cn1 [Example 241, (1S,5S,6S)-3-amino-5-(5-((Z)-2-(5-(but-2-yn-1-yloxy)pyrazin-2-yl)-2-fluorovinyl)-2-fluorophenyl)-5-methyl-2-thia-4-azabicyclo[4.1.0]hept-3-ene-1-carboxamide]",0.0004 µM,,0.115 µM,165 µM,45%,47%,,0.0039 µM,
"CN(C)C(=O)[C@]12C[C@H]1[C@@](C)(c1cc(/C=C(\F)c3ccc(C#N)cn3)ccc1F)N=C(N)S2 [Example 106, (1S,5S,6S)-3-amino-5-(5-((Z)-2-(5-cyanopyridin-2-yl)-2-fluorovinyl)-2-fluorophenyl)-N,N,5-trimethyl-2-thia-4-azabicyclo[4.1.0]hept-3-ene-1-carboxamide]",,,0.0143 µM,148 µM,78%,71%,,,
"C#CCOc1cnc(/C(F)=C/c2ccc(F)c([C@@]3(C)N=C(N)S[C@@]4(C(=O)NC)C[C@H]43)c2)cn1 [Example 151, (1S,5S,6S)-3-amino-5-(2-fluoro-5-((Z)-2-fluoro-2-(5-(prop-2-yn-1-yloxy)pyrazin-2-yl)vinyl)phenyl)-N,5-dimethyl-2-thia-4-azabicyclo[4.1.0]hept-3-ene-1-carboxamide]",,,0.396 µM,135 µM,64%,45%,,,
"C#CCOc1cnc(/C(F)=C/c2ccc(F)c([C@@]3(C)N=C(N)S[C@@]4(C(=O)N5CCOCC5)C[C@H]43)c2)cn1 [Example 292, ((1S,5S,6S)-3-amino-5-(2-fluoro-5-((Z)-2-fluoro-2-(5-(prop-2-yn-1-yloxy)pyrazin-2-yl)vinyl)phenyl)-5-methyl-2-thia-4-azabicyclo[4.1.0]hept-3-en-1-yl)(morpholino)methanone]",,,,,70%,75%,,0.0007 µM,
"C[C@@H]1[C@H](F)CCN1C(=O)[C@]12C[C@H]1[C@@](C)(c1cc(/C=C(\F)c3ccc(C#N)cn3)ccc1F)N=C(N)S2 [Example 307, 6-((Z)-2-(3-((1S,5S,6S)-3-amino-1-((2R,3R)-3-fluoro-2-methylpyrrolidine-1-carbonyl)-5-methyl-2-thia-4-azabicyclo[4.1.0]hept-3-en-5-yl)-4-fluorophenyl)-1-fluorovinyl)nicotinonitrile]",0.002 µM,,0.1 µM,11 µM,67%,59%,,0.002 µM,
"C[C@]1(c2cc(/C=C(\F)c3ccc(C#N)cn3)ccc2F)N=C(N)S[C@@]2(C(=O)N3CCO[C@@H]4C[C@@H]43)C[C@H]21 [Example 312, 6-((Z)-2-(3-((1S,5S,6S)-3-amino-1-((1R,6S)-2-oxa-5-azabicyclo[4.1.0]heptane-5-carbonyl)-5-methyl-2-thia-4-azabicyclo[4.1.0]hept-3-en-5-yl)-4-fluorophenyl)-1-fluorovinyl)nicotinonitrile]",,,,,66%,56%,,,
"CNC(=O)[C@]12C[C@H]1[C@@](C)(c1cc(/C=C(\F)c3ccc(OC(F)(F)F)cn3)ccc1F)N=C(N)S2 [Example 364, (1S,5S,6S)-3-amino-5-(2-fluoro-5-((Z)-2-fluoro-2-(5-(trifluoromethoxy)pyridin-2-yl)vinyl)phenyl)-N,5-dimethyl-2-thia-4-azabicyclo[4.1.0]hept-3-ene-1-carboxamide]",0.008 µM,,0.285 µM,256 µM,,,,0.025 µM,
"C[C@]1(c2cc(/C=C(\F)c3ccc(C#N)cn3)ccc2F)N=C(N)S[C@@]2(C(=O)N3CC4(CCOCC4)C3)C[C@H]21 [Example 320, 6-((Z)-2-(3-((1S,5S,6S)-3-amino-5-methyl-1-(7-oxa-2-azaspiro[3.5]nonane-2-carbonyl)-2-thia-4-azabicyclo[4.1.0]hept-3-en-5-yl)-4-fluorophenyl)-1-fluorovinyl)nicotinonitrile]",0.0052 µM,,0.039 µM,292 µM,,,,0.0024 µM,
C[C@]1(c2cc(/C=C(\F)c3ccc(C#N)cn3)ccc2F)N=C(N)S[C@@]2(C(=O)N3CCOC[C@@H]3CO)C[C@H]21 [Example 335],,0.0026 µM,,148 µM,,,0.0028 µM,,0.186 µM
"C#CCOc1cnc(/C(F)=C/c2ccc(F)c([C@@]3(C)N=C(N)S[C@]4(CO)[C@H]3C4(F)F)c2)cn1 [Example 253, ((1S,5S,6R)-3-amino-7,7-difluoro-5-(2-fluoro-5-((Z)-2-fluoro-2-(5-(prop-2-yn-1-yloxy)pyrazin-2-yl)vinyl)phenyl)-5-methyl-2-thia-4-azabicyclo[4.1.0]hept-3-en-1-yl)methanol]",0.0054 µM,,0.385 µM,147 µM,,,,0.0636 µM,
"COC(=O)[C@]12C[C@H]1[C@@](C)(c1cc(/C=C(\F)c3ccc(Cl)cn3)cnc1F)N=C(N)S2 [Example 176, (1S,5S,6S)-methyl 3-amino-5-(5-((Z)-2-(5-chloropyridin-2-yl)-2-fluorovinyl)-2-fluoropyridin-3-yl)-5-methyl-2-thia-4-azabicyclo[4.1.0]hept-3-ene-1-carboxylate]",0.142 µM,,0.214 µM,> 400 µM,,,,1.76 µM,
"CN(C)C(=O)[C@]12C[C@H]1[C@@](C)(c1cc(/C=C(\F)c3ccc(Cl)cn3)ccc1F)N=C(N)S2 [Example 102, (1S,5S,6S)-3-amino-5-(5-((Z)-2-(5-chloropyridin-2-yl)-2-fluorovinyl)-2-fluorophenyl)-N,N,5-trimethyl-2-thia-4-azabicyclo[4.1.0]hept-3-ene-1-carboxamide]",,,0.002 µM,329 µM,55%,20%,,,
"C#CCOc1cnc(/C(F)=C/c2ccc(F)c([C@@]3(C)N=C(N)S[C@@]4(c5ncc(C)o5)C[C@@H]34)c2)cn1 [Example 345, (1S,5S,6S)-5-(2-fluoro-5-((Z)-2-fluoro-2-(5-(prop-2-yn-1-yloxy)pyrazin-2-yl)vinyl)phenyl)-5-methyl-1-(5-methyloxazol-2-yl)-2-thia-4-azabicyclo[4.1.0]hept-3-en-3-amine]",0.0063 µM,,0.52 µM,88.9 µM,,,,0.156 µM,

# — patent US10246429B2, “Vinyl fluoride cyclopropyl fused thiazin-2-amine compounds as beta-secretase inhibitors and methods of use” (AMGEN INC., priority 2015, dated 2019)
